The experiment deals with T1, Bifunctional epoxide hydrolase 2 (Homo sapiens, UniProt P34913).
T1 sequence (P34913 whole entry): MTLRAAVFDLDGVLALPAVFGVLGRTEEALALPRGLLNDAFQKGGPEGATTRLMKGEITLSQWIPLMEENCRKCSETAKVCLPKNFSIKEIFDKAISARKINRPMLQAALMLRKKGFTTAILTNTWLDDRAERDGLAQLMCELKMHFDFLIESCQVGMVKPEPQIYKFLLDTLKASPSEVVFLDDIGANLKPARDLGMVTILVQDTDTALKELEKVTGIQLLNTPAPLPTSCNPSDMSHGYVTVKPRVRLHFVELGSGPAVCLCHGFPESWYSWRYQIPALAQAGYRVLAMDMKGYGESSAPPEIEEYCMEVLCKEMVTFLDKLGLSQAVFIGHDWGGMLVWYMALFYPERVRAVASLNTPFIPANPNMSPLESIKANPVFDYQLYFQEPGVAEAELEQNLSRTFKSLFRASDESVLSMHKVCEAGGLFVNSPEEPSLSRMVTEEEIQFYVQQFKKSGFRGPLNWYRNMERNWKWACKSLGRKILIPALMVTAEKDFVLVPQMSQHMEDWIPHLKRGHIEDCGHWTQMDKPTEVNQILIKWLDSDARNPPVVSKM
Nature of the experiment: Inhibition of soluble epoxide hydrolase by fluorescence assay.
Molecule `O=C(Nc1ccc(OCc2ccccc2)cc1)C(O)CC12CC3CC(CC(C3)C1)C2` (centres undefined) yielded an IC50 of 270 nM. In the case of `O=C(NCCc1ccc(OCc2ccccc2)cc1)C(O)CC12CC3CC(CC(C3)C1)C2` (centres undefined), it took 185 nM to reach half-maximal inhibition (IC50).

Take `O=C(CC12CC3CC(CC(C3)C1)C2)Nc1cccc(OCCCN2CCOCC2)c1`: the midpoint of inhibition, the IC50, lay at 2.5 nM. With `O=S(=O)(Nc1cccc(OCCCN2CCOCC2)c1)NC12CC3CC(CC(C3)C1)C2`, the 50% inhibitory concentration (IC50) worked out at 3600 nM.

`O=S(=O)(Nc1cccc(OCCCN2CCOCC2)c1)c1ccc(C(F)(F)F)cc1` yielded an IC50 of 15000 nM. In turn, `O=C(CC1CCCCC1)Nc1cccc(OCCCN2CCOCC2)c1` displayed a half-inhibitory concentration (IC50) of 28 nM. As to `O=C(Nc1cccc(OCCCN2CCOCC2)c1)c1ccc(C(F)(F)F)cc1`, the half-maximal inhibitory concentration (IC50) was found to be 93 nM.

`O=C(CNC12CC3CC(CC(C3)C1)C2)Nc1cccc(OCCCN2CCOCC2)c1`: half-maximal inhibition (IC50) was put at 110 nM. Consider `O=C(Cc1ccc(C(F)(F)F)cc1)Nc1cccc(OCCCN2CCOCC2)c1`, for which inhibition was half-maximal at 55 nM (IC50).

`O=C(CCC12CC3CC(CC(C3)C1)C2)C(=O)Nc1cccc(OCCCN2CCOCC2)c1`: the IC50 was 48 nM. To `O=C(Nc1ccc(OC(F)(F)F)cc1)Nc1cccc(OCCCN2CCOCC2)c1` belongs 8.2 nM; to `S=C(Nc1cccc(OCCCN2CCOCC2)c1)NC12CC3CC(CC(C3)C1)C2`, 22 nM. `O=C(NCCc1ccc(OCc2ccccc2)cc1)NCCC12CC3CC(CC(C3)C1)C2` yielded an IC50 of 15 nM. Molecule `O=C(Nc1ccc(OCc2ccccc2)cc1)C(=O)C12CC3CC(CC(C3)C1)C2` displayed an IC50 of 210 nM. Take `O=C(CC12CC3CC(CC(C3)C1)C2)C(=O)Nc1ccc(OCc2ccccc2)cc1`: the concentration for half-maximal inhibition (IC50) is 1110 nM. To `O=C(Nc1cccc(OCCCN2CCOCC2)c1)C(=O)C12CC3CC(CC(C3)C1)C2` belongs more than 2000 nM. In turn, `O=C(Nc1cccc(OCCCN2CCOCC2)c1)NC1CCCCC1` returned an IC50 of 3.9 nM.

The molecule `O=C(Nc1cccc(OCCCN2CCOCC2)c1)C(O)C12CC3CC(CC(C3)C1)C2` (centres undefined) returned an IC50 of more than 2000 nM. To `O=C(CC12CC3CC(CC(C3)C1)C2)C(=O)Nc1cccc(OCCCN2CCOCC2)c1` belongs 49 nM; to `O=C(CCC12CC3CC(CC(C3)C1)C2)C(=O)NCCc1ccc(OCc2ccccc2)cc1`, 685 nM.

For `O=C(Nc1cccc(OCCCN2CCOCC2)c1)NC12CC3CC(CC(C3)C1)C2`, the IC50 turned out to be 0.8 nM. `O=C(Nc1ccc(OCc2ccccc2)cc1)C(O)C12CC3CC(CC(C3)C1)C2` (centres undefined) showed an IC50 of 310 nM.

Consider `O=C(Nc1ccc(C(F)(F)F)cc1)Nc1cccc(OCCCN2CCOCC2)c1`, for which half-maximal inhibition (IC50) was put at 1.2 nM.

The molecule `O=C(CC12CC3CC(CC(C3)C1)C2)C(=O)NCCc1ccc(OCc2ccccc2)cc1` returned a 50% inhibitory concentration (IC50) of 1540 nM.

In turn, `O=C(Nc1cccc(OCCCN2CCOCC2)c1)C(O)CCC12CC3CC(CC(C3)C1)C2` (centres undefined) registered a half-inhibitory concentration (IC50) of 530 nM. In the case of `O=C(NCCc1ccc(OCc2ccccc2)cc1)C(O)CCC12CC3CC(CC(C3)C1)C2` (centres undefined), the IC50 is 11 nM. In turn, `O=C(Nc1cccc(OCCCN2CCOCC2)c1)C(O)CC12CC3CC(CC(C3)C1)C2` (centres undefined) came in with a concentration for half-maximal inhibition (IC50) of 23 nM. As for `O=C(Nc1cccc(OCCCN2CCOCC2)c1)C12CC3CC(CC(C3)C1)C2`, the midpoint of inhibition, the IC50, lay at 88 nM. Consider `O=C(Nc1cccc(OCCCN2CCOCC2)c1)C1CCCCC1`, for which it took 390 nM to reach half-maximal inhibition (IC50).

Values taken from ChEMBL document CHEMBL1152719, “Non-urea functionality as the primary pharmacophore in soluble epoxide hydrolase inhibitors” (Bioorg Med Chem Lett, 2009).
